Laboratory results from PMC10906927, “Structure of the PCNA unloader Elg1-RFC” (Science Advances, 2024).

How the values were obtained:
Elg1-RFC [1] = system: T1, Elg1-RFC; assay: cryo-EM structure, […] Å; format: binding, Saccharomyces cerevisiae
T1 construct: heteropentamer; 3xFLAG-Elg1 and Rfc5 (pLANT-2RIL) with Rfc2, Rfc3, Rfc4 (pET11a) co-expressed in E. coli BLR(DE3) (results text says expressed in yeast); anti-FLAG and MonoS; no tag removal told

Elg1-RFC–PCNA = system: T2, Elg1-RFC–PCNA; assay: cryo-EM structure, […] Å (closed PCNA) and […] Å (cracked PCNA); format: binding, Saccharomyces cerevisiae; settings: glutaraldehyde cross-linked
T2 construct: with Proliferating cell nuclear antigen

Elg1-RFC [2] = system: T1, Elg1-RFC; assay: […]-PCNA unloading from nicked plasmid, gel filtration; format: biochemical, Saccharomyces cerevisiae; settings: 2 mM AMP-PNP, 56 nM Elg1-RFC, 0.69 nM 32P-PCNA-DNA, 8 mM MgCl2, 100 mM NaCl, pH 7.5, 30 °C, 2 min; supports unloading without hydrolysis
[3] = biological target: T3, Rfc4, subunit of Elg1-RFC (S. cerevisiae, UniProt P40339 1-323); assay: cryo-EM structure; Elg1-RFC 2.9 uM, PCNA clamp 1.3 uM, 5'-tailed DNA 28.7 uM, ATPgammaS 0.5 mM, Mg-acetate 6.7 mM, ice-water bath, then cross-linked with glutaraldehyde and quenched with Tris; no DNA seen in the maps; closed and cracked PCNA ring; settings: both partners purified
T3 construct: Rfc4, S. cerevisiae replication factor C subunit 4; Stood in the assay as a subunit of the Elg1-RFC pentamer; source: E. coli BLR(DE3), co-expressed with Elg1 and Rfc2, 3, 5, purified as Elg1-RFC (anti-FLAG resin, MonoS)
T3 sequence: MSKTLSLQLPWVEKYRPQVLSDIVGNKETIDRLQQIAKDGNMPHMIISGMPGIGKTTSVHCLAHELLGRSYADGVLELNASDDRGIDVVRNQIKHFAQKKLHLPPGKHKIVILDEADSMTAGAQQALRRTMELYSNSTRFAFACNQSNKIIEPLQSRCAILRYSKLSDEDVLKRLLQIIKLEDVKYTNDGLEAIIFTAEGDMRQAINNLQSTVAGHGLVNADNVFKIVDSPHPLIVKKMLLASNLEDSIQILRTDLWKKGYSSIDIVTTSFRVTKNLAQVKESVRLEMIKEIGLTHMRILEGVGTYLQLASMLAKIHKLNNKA

[4] = biological target: the molecule itself; assay: as above
[5] = biological target: T4, Elg1 (enhanced levels of genome instability 1), subunit of Elg1-RFC (S. cerevisiae, UniProt Q12050 1-791); assay: as above; settings: both partners purified
T4 construct: Elg1 (enhanced levels of genome instability 1), S. cerevisiae; Stood in the assay as a subunit of the Elg1-RFC pentamer; also called 3xFLAG-Elg1; Elg1 subunit; source: E. coli BLR(DE3), co-expressed with Rfc2-5, purified as Elg1-RFC (anti-FLAG resin, MonoS)
T4 sequence (looked up): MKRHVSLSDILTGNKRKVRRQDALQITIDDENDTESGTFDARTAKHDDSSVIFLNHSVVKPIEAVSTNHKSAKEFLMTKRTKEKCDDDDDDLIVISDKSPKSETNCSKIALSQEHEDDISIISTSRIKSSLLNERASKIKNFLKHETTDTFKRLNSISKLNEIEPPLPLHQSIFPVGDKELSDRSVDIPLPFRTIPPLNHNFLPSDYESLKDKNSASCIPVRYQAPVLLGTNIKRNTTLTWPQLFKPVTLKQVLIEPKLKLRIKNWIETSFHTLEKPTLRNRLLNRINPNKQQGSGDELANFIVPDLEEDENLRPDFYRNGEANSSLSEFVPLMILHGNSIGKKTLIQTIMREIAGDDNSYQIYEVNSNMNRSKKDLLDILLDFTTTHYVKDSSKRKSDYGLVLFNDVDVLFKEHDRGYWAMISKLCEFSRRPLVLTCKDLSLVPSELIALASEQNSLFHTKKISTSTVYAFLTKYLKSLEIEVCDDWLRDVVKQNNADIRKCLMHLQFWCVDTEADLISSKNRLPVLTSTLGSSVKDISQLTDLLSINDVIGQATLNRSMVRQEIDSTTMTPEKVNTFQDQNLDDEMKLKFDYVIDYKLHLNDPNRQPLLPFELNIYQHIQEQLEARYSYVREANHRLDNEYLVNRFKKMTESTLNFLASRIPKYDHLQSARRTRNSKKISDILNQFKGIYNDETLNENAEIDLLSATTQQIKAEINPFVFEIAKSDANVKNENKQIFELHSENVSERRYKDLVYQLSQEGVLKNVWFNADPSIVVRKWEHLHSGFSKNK

[6] = biological target: T5, Rfc3, subunit of Elg1-RFC (S. cerevisiae, UniProt P38629 1-340); assay: as above; settings: both partners purified
T5 construct: Rfc3, S. cerevisiae replication factor C subunit 3; Stood in the assay as a subunit of the Elg1-RFC pentamer; source: E. coli BLR(DE3), co-expressed with Elg1 and Rfc2, 4, 5, purified as Elg1-RFC (anti-FLAG resin, MonoS)
T5 sequence: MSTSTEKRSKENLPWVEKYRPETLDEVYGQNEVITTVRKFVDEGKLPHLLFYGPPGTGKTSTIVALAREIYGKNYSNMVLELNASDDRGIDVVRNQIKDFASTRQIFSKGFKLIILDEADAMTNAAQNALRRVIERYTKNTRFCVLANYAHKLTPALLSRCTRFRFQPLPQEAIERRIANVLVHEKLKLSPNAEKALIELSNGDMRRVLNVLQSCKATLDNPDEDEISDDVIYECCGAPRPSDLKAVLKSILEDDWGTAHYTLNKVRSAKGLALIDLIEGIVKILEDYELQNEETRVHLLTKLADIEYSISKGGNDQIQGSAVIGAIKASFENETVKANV

[7] = site in Rfc5, ADP not listed among added components

T1 sequence (P40348 whole entry, one chain of several, further chain): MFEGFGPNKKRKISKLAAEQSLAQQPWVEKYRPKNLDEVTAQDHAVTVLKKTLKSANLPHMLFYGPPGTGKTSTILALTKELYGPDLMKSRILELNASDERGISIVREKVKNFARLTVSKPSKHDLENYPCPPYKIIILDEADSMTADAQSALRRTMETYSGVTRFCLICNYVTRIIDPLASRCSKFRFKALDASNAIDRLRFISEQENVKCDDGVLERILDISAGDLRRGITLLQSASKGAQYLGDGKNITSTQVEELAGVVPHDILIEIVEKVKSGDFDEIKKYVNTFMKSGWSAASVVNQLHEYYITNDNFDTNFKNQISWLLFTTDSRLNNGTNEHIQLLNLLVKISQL
T1 sequence (P38251 whole entry, one chain of several, further chain): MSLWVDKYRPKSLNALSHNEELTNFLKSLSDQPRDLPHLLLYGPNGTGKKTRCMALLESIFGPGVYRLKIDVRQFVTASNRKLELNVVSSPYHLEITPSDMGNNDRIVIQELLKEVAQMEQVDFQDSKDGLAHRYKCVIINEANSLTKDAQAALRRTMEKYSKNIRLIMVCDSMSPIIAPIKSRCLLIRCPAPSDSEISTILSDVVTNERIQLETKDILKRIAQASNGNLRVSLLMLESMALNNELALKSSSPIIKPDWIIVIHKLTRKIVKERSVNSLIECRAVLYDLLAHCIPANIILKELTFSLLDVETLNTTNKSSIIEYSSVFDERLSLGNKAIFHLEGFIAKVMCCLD
T2 sequence (P40348 whole entry, one chain of several, further chain): as the sequence (P40348 whole entry, one chain of several, further chain) above
T2 sequence (P38251 whole entry, one chain of several, further chain): as the sequence (P38251 whole entry, one chain of several, further chain) above

## Nc1ncnc2c1ncn2[C@@H]1O[C@H](COP(=O)(O)OP(=O)(O)O)[C@@H](O)[C@H]1O [ADP]
Elg1-RFC [1]; [7]
  cryo-EM structure, 3.2 Å: four ATPγS in Rfc2, Rfc3, Rfc4, and Elg1, and one ADP in Rfc5
Elg1-RFC–PCNA; [7]
  cryo-EM structure, 3.3 Å (closed PCNA) and 3.7 Å (cracked PCNA): In all three Elg1-RFC structures, we found five bound nucleotides

## Nc1ncnc2c1ncn2[C@@H]1O[C@H](COP(=O)(O)OP(=O)(O)NP(=O)(O)O)[C@@H](O)[C@H]1O [AMP-PNP]
Elg1-RFC [2]
  32P-PCNA unloading from nicked plasmid, gel filtration: Elg1-RFC can unload PCNA from DNA with non-hydrolyzable AMP-PNP

## Nc1ncnc2c1ncn2[C@@H]1O[C@H](COP(=O)(O)OP(=O)(O)OP(O)(O)=S)[C@@H](O)[C@H]1O [ATPγS]
Elg1-RFC [1]; 0.5 mM ATPγS final (1 mM in results text), 6.7 mM Mg-acetate, sites in Rfc2, Rfc3, Rfc4 and Elg1, Elg1 site without Mg density
  cryo-EM structure, 3.2 Å: four ATPγS in Rfc2, Rfc3, Rfc4, and Elg1, and one ADP in Rfc5
Elg1-RFC–PCNA; 0.5 mM ATPγS final (1 mM in results text), 6.7 mM Mg-acetate, sites in Rfc2, Rfc3, Rfc4 and Elg1
  cryo-EM structure, 3.3 Å (closed PCNA) and 3.7 Å (cracked PCNA): In all three Elg1-RFC structures, we found five bound nucleotides: four ATPγS in Rfc2, Rfc3

B1: proliferating cell nuclear antigen (PCNA), S. cerevisiae (natural protein)
chain: MLEAKFEEASLFKRIIDGFKDCVQLVNFQCKEDGIIAQAVDDSRVLLVSLEIGVEAFQEYRCDHPVTLGMDLTSLSKILRCGNNTDTLTLIADNTPDSIILLFEDTKKDRIAEYSLKLMDIDADFLKIEELQYDSTLSLPSSEFSKIVRDLSQLSDSINIMITKETIKFVADGDIGSGSVIIKPFVDMEHPETSIKLEMDQPVDLTFGAKYLLDIIKGSSLSDRVGIRLSSEAPALFQFDLKSGFLQFFLAPKFNDEE
notes: PCNA, S. cerevisiae sliding clamp; Homotrimeric ring; In the unloading assays the kinase site was labelled with 32P; also called PCNA clamp; PCNA ring
[3]
  binding result: binds
[4]
  stoichiometry N: 3
[5]
  binding result: binds
[6]
  binding result: binds
